Assay results taken from patent US20250049027A1, “PLANT PATHOGEN COMPOSITION” (Robjulz Pty. Ltd., priority 2021, published 2025).

Assays:
P. palmivora [1] = assay: In vivo testing using cocoa pods, pre-treated then inoculated; set-up: species or system Phytophthora palmivora
Procedure: The efficacy of a fungicidal composition of the present invention was tested against P. palmivora. Healthy, green cocoa pods were picked, prior to artificial inoculation with Phytophthora isolate M5. One highly virulent P. palmivora isolate (MI 5 from Sabah) with 5 replicates (pods) were used as the control.
Each pod was washed carefully three times with sterile distilled water, the surface was disinfected for 2 minutes in 75% ethanol, and pods were air-dried at room temperature (25±2° C.). Different concentrations of the composition of the present invention (0-540 ppm) were prepared as for Examples 3 and 4, using the composition described in Example 1 which contained a polymeric film-forming agent, and spread on the pod surface to cover the whole pod. Cocoa pods with sterile distilled water were included as a negative control. After spreading, the pre-treated pods were inoculated with a 12 mm plug of 5-day old culture of P. palmivora grown on CMA plates by placing over the intact skin at the centre of each cocoa pod (see FIGS. 3A-I). The resulting pods were kept in moist plastic trays, covered with black polythene sheets to maintain moisture level, and incubated at 25±2° C. in the dark for seven days.

P. palmivora [2] = assay: In vivo testing using durian fruit, pre-treated then inoculated; set-up: species or system Phytophthora palmivora; details: concluded from the durian fruit data; ppm of BAC
Procedure: Healthy durian fruits were harvested carefully from a durian plantation, for artificial inoculation with Phytophthora isolate DB4. Untreated durian fruits with five replicates were used as the control. Fungicidal compositions were prepared, as for Example 5, then applied to the fruit surface. Durian fruits with sterile distilled water were included as a negative control. The pre-treated fruits were inoculated with a 12 mm plug of a 5-day old culture of P. palmivora grown on CMA plates by placing over the intact skin at the centre of each fruit. The resulting durian fruits were kept in moist plastic trays, covered with black polythene sheets to maintain moisture level, and incubated at 25±2° C. in the dark for seven days. Measurement of lesions were made at seven days after inoculation.

[3] = system: Fusarium oxysporum f. sp. cubense TR4 (FocTR4); assay: In vitro poison agar test, mycelial growth on potato dextrose agar; assay type: cell-based; details: concluded from the in vitro data; ppm of BAC
Procedure: In vitro tests were performed against Fusarium oxysporum f. sp. cubense TR4 (FocTR4), the fungal pathogen responsible for Panama wilt of banana, using a poison agar method as discussed below.
(§1) Potato dextrose agar (PDA, 39 g) medium (Difco™) was added to distilled or deionized water (1 L) in accordance with the manufacturer's instruction before autoclaving at 121° C. for 20 minutes and cooling to 50-55° C. in a water bath. To the resulting mixture was added the stock solution of Example 3, in accordance with the amounts in Table 5, or sterile distilled water (control sample). Five replications for each treatment were prepared, and the experiment was carried out using a completely randomized design (CRD).
Mycelial growth in each treatment was recorded within seven days after incubation at room temperature with natural dark/light cycle in reference to the growth of the control. Percent inhibition of diameter growth (% PIDG) was calculated as described above. Analyses of statistical data were carried out using the standard analysis of variance (ANOVA) procedure using SAS software (version 9.2).

Phytophthora palmivora = assay: In vitro poison agar test, mycelial growth on corn meal agar; assay type: cell-based; details: concluded from the in vitro data; ppm of BAC
Procedure: In vitro tests were performed against Phytophthora palmivora, the pathogen responsible for pod rot of cocoa, stem canker of durian and rubber, and foot rot of pepper, using a poison agar method as discussed below.
A stock solution was prepared with (a) BAC (50% w/v in water, 180 mL), (b) STPP (25 g), and (c) BL8 (120 mL), with enough water to provide a total volume of 1 L.
as §1, with “Corn meal” for “Potato dextrose”, “(CMA, 17” for “(PDA, 39”, “(Oxoid™, Thermo Scientific)” for “(Difco™)”, “described above,” for “of Example 3,”, “3,” for “5,”
Mycelial growth in each treatment was recorded within seven days after incubation at room temperature with natural dark/light cycle in reference to the growth of the control. Percent inhibition of diameter growth (% PIDG) was calculated as follows:
[formula] • where: dc=average diameter of fungal colony in the control plate, and • dt=average diameter of fungal colony in the treatment plate. […]

[4] = system: Fusarium oxysporum f. sp. cubense TR4 (FocTR4); assay: In vivo preventative testing using banana plants, soil application before inoculation; details: concluded from the banana plant data; ppm of BAC
Procedure: The efficacy of a fungicidal composition of the present invention was tested against Fusarium oxysporum f. sp. cubense TR4 (FocTR4), the fungal pathogen responsible for Panama wilt of banana, for use as a preventative.
Banana seedlings (cv. Berangan, 2-month-old) were obtained from Malaysian Agricultural Research and Development Institute (MARDI). Soil was prepared in polybags and sterilized using a large capacity autoclave at the Institute of Plantation Sciences (IKP). Seedlings were allowed to acclimatize in a greenhouse for approximately two months, reaching a height of about 50 cm, before being inoculated with FocTR4. Plants were watered with a dripping system, and fertilized with NPK.
The seedlings were used in a randomized complete block design (RCBD) with seven treatments: healthy control, disease control, four concentrations (100 ppm, 300 ppm, 500 ppm and 700 ppm), and a commercial fungicide. For the four concentrations tested, compositions were either a test solution as described in Example 2, or a polymer control (as described in Example 1 with acrylamide polymer omitted). […]
Four replications were used for each treatment, with four plants per replicate. […] Seedlings were assessed after inoculation to measure disease incidence (DI) and disease severity (DSI). […] DSI was measured by estimating the proportion of plant surface area was infected. […]

benzalkonium chloride [BAC]
pods showing fungal infection around plug (P. palmivora [1]; cocoa pods treated with 18 ppm BAC, FIG. 3B): four out of five pods show fungal infection around plug | pods showing fungal infection around plug (P. palmivora [1]; cocoa pods treated with 36 ppm BAC, FIG. 3C): four out of five pods show fungal infection around plug | pods showing fungal infection around plug (P. palmivora [1]; cocoa pods treated with 54 ppm BAC, FIG. 3D): three out of five pods show fungal infection around plug | pods showing fungal infection around plug (P. palmivora [1]; cocoa pods treated with 72 ppm BAC, FIG. 3E): two out of five pods show fungal infection around plug | pods showing fungal infection around plug (P. palmivora [1]; cocoa pods treated with 90, 180, 360 and 540 ppm BAC, FIG. 3F-I): no fungal infection around plug | effective concentration for controlling an oomycete such as P. palmivora when applied to the fruit (P. palmivora [1]; concluded from the cocoa pod data, ppm of BAC): 15-750 ppm | effective concentration for controlling an oomycete such as P. palmivora when applied to the fruit (P. palmivora [2]): 15-750 ppm | effective concentration for controlling a fungus such as Fusarium [3]: 500-2000 ppm | effective concentration for controlling an oomycete such as Phytophthora (Phytophthora palmivora): 15-750 ppm | effective concentration for controlling a fungus such as Fusarium, when applied to the soil [4]: 500-2000 ppm
